Values after ≈ are worked out from the molar mass of the structure shown.
Legend:
[1] = test system: H9 (acute lymphoblastic leukemia, ALL); test: MTT growth inhibition of leukemia cells, 72 h; type: cell-based, human; settings: Homo sapiens, MTT
Description: (§1) Leukemia cell lines: leukemia cell lines: K562/adr (drug-resistant, chronic myeloid leukemia, CML), NB4 (acute promyelocytic leukemia, AML), Kasumi-1 (acute myeloid leukemia M2 type, AML-M2), Jurkat (acute lymphoblastic leukemia, ALL), all of which are donated by Cancer Research Institute of Zhejiang University, China; and H9 (acute lymphoblastic leukemia, ALL), which is purchased from China Center for Type Culture Collection (CCTCC).
(§2) Reagents: The standard sample of homoharringtonine (HHT) is purchased from Taihua Natural Plant Pharmaceutical Co., Ltd., Shaanxi, China, the homoharringtonine derivatives of the present invention.
(§3) Obtaining 6000 well-growing leukemia cells and inoculating them into wells of a 96-well cell culture plate. The culture medium is the 1640 cell culture medium containing 10% fetal bovine serum. After adding the homoharringtonine derivatives of different concentrations and mixing uniformly, placing the plate in a carbon dioxide cell incubator (5% CO2) at 37° C. and incubated for 72 hours. Then the viable cell concentration is determined by the MTT method. In this experiment, the cell viability in control group (not treated with any compound) is set as 100%. On such basis, the cell viability (%) after treatment and the 50% inhibiting concentration of the compound for the leukemia cell growth at 72 hours (IC50 value of 72 hours) are calculated.

[2] = test system: Jurkat (acute lymphoblastic leukemia, ALL); test: MTT growth inhibition of leukemia cells, 72 h; type: cell-based, human; settings: Homo sapiens, Jurkat
Description: as §1, §2, §3

[3] = test system: K562/adr (drug-resistant, chronic myeloid leukemia, CML); test: MTT growth inhibition of leukemia cells, 72 h; type: cell-based, human; settings: Homo sapiens, K562/Adr, MTT
Description: as §1, §2, §3

[4] = test system: Kasumi-1 (acute myeloid leukemia M2 type, AML-M2); test: MTT growth inhibition of leukemia cells, 72 h; type: cell-based, human; settings: Homo sapiens, Kasumi 1, MTT
Description: as §1, §2, §3

[5] = test system: NB4 (acute promyelocytic leukemia, AML); test: MTT growth inhibition of leukemia cells, 72 h; type: cell-based, human; settings: Homo sapiens, MTT
Description: as §1, §2, §3

[6] = test system: RPMI8226 (multiple myeloma); test: MTT growth inhibition of multiple myeloma cells, 72 h; type: cell-based, human; settings: for IC50 / IC90: Homo sapiens, RPMI-8226, MTT
Method: Multiple myeloma and lymphoma cell lines: RPMI8226 (multiple myeloma), purchased from Fuxiang Bio-tech Co. Ltd., Shanghai, China.
as §3

A549 (human lung cancer) = test: MTT growth inhibition of human solid tumor cells, 72 h; type: cell-based; settings: Homo sapiens, A549
Method: (§4) Human solid tumor cell lines: Hep-2 (laryngeal carcinoma), A549 (human lung cancer), CaES-17 (esophageal cancer cell), PC-3 (prostate cancer), CNE (nasopharyngeal carcinoma cell), and SK-OV-3 (ovarian cancer cell), all of which are purchased from China Center For Type Culture Collection; RKO (human colon adenocarcinoma cell), MGC 803 (human gastric cancer cell), MG63 (osteosarcoma) and U87 MG (malignant glioma cell), all of which are purchased from Fuxiang Bio-tech Co. Ltd., Shanghai, China; PANC-1 (pancreatic cancer), Huh7 (human liver cancer cell), Becap37 (human breast cancer cell), and Hela (human cervical cancer cell), all of which are donated by Cancer Research Institute of Zhejiang University, China.
(§5) Obtaining 4000 well-growing human solid tumor cells and inoculating them into wells of a 96-well cell culture plate. The culture medium is DMEM High Glucose cell culture medium containing 10% fetal bovine serum. The plate is placed in a carbon dioxide cell incubator (5% CO2) at 37° C. and incubated for 24 hours. After adding the homoharringtonine derivatives of different concentration and mixing uniformly, the plate is placed in a carbon dioxide cell incubator (5% CO2) at 37° C. and incubated for 72 hours. Then the viable cell concentration is determined by the MTT method and the cell viability (%) after drug treatment is calculated. In this experiment, the cell viability of control group (not treated with any compound) is set as 100%.

[7] = test system: Becap37 (human breast cancer cell); test: as above; type: cell-based; settings: Homo sapiens
Method: as §4, §5

[8] = test system: CNE (nasopharyngeal carcinoma cell); test: as above; type: cell-based; settings: Homo sapiens, MTT
Method: as §4, §5

[9] = test system: CaES-17 (esophageal cancer cell); test: as above; type: cell-based; settings: Homo sapiens, CaEs17
Method: as §4, §5

[10] = test system: Hela (human cervical cancer cell); test: as above; type: cell-based; settings: Homo sapiens, HeLa, MTT
Method: as §4, §5

[11] = test system: Hep-2 (laryngeal carcinoma); test: as above; type: cell-based; settings: Homo sapiens, HEp-2
Method: as §4, §5

[12] = test system: Huh7 (human liver cancer cell); test: as above; type: cell-based; settings: Homo sapiens, Huh-7
Method: as §4, §5

MG63 (osteosarcoma) = test: as above; type: cell-based; settings: Homo sapiens, MG-63, MTT
Method: as §4, §5

[13] = test system: MGC 803 (human gastric cancer cell); test: as above; type: cell-based; settings: Homo sapiens, MGC-803
Method: as §4, §5

[14] = test system: PANC-1 (pancreatic cancer); test: as above; type: cell-based; settings: Homo sapiens, PANC-1, MTT
Method: as §4, §5

PC-3 (prostate cancer) = test: as above; type: cell-based; settings: Homo sapiens, MTT
Method: as §4, §5

[15] = test system: RKO (human colon adenocarcinoma cell); test: as above; type: cell-based; settings: Homo sapiens, MTT
Method: as §4, §5

[16] = test system: SK-OV-3 (ovarian cancer cell); test: as above; type: cell-based; settings: Homo sapiens, SK-OV-3, MTT
Method: as §4, §5

[17] = test system: U87 MG (malignant glioma cell); test: as above; type: cell-based; settings: Homo sapiens, U-87 MG
Method: as §4, §5

Q: With `COC(=O)C[C@@](CCCC(C)(C)OC(C)=O)(OC(C)=O)C(=O)O[C@@H]1C(OC)=C[C@]23CCCN2CCc2cc4c(cc2[C@H]13)OCO4` [BS-HH-001, 2,6-diacetylhomoharringtonine] as the compound, how does the IC50 [1] read?
A: 0.02 µg/mL (≈ 0.0318 µM)

Q: What about the IC90 [1] of the same compound?
A: 0.05 µg/mL (≈ 0.0794 µM)

Q: What about the IC50 [2] of the same compound?
A: 0.012 µg/mL (≈ 0.0191 µM)

Q: What about the IC90 [2] of the same compound?
A: ≥ 16 µg/mL

Q: What about the IC50 [3] of the same compound?
A: 0.062 µg/mL (≈ 0.0985 µM)

Q: What about the IC90 [3] of the same compound?
A: 1.18 µg/mL (≈ 1.87 µM)

Q: What about the IC50 [4] of the same compound?
A: 0.006 µg/mL (≈ 0.00953 µM)

Q: What about the IC90 [4] of the same compound?
A: 0.021 µg/mL (≈ 0.0333 µM)

Q: And the IC50 [5]?
A: 0.01 µg/mL (≈ 0.0159 µM)

Q: And the IC90 [5]?
A: 0.022 µg/mL (≈ 0.0349 µM)

Q: What about the “anti-RPMI8226 (multiple myeloma) effectiveness” value [6] of the same compound?
A: particularly effective

Q: What about the IC50 [6] of the same compound?
A: 0.009 µg/mL (≈ 0.0143 µM)

Q: And the IC90 [6]?
A: 0.12 µg/mL (≈ 0.191 µM)

Q: And the IC50 (A549 (human lung cancer))?
A: 0.03 µg/mL (≈ 0.0476 µM)

Q: And the IC90 (A549 (human lung cancer))?
A: > 16 µg/mL

Q: And the IC50 [7]?
A: 0.015 µg/mL (≈ 0.0238 µM)

Q: What about the IC90 [7] of the same compound?
A: 14 µg/mL (≈ 22.2 µM)

Q: What about the IC50 [8] of the same compound?
A: 0.062 µg/mL (≈ 0.0985 µM)

Q: And the IC90 [8]?
A: > 16 µg/mL

Q: What about the IC50 [9] of the same compound?
A: 0.062 µg/mL (≈ 0.0985 µM)

Q: What about the IC90 [9] of the same compound?
A: > 16 µg/mL

Q: And the IC50 [10]?
A: 0.026 µg/mL (≈ 0.0413 µM)

Q: And the IC90 [10]?
A: > 16 µg/mL

Q: And the IC50 [11]?
A: 0.026 µg/mL (≈ 0.0413 µM)

Q: And the IC90 [11]?
A: > 16 µg/mL

Q: And the IC50 [12]?
A: 0.016 µg/mL (≈ 0.0254 µM)

Q: And the IC90 [12]?
A: 0.13 µg/mL (≈ 0.206 µM)

Q: And the IC50 (MG63 (osteosarcoma))?
A: 0.02 µg/mL (≈ 0.0318 µM)

Q: And the IC90 (MG63 (osteosarcoma))?
A: 2.4 µg/mL (≈ 3.81 µM)

Q: What about the IC50 [13] of the same compound?
A: 0.03 µg/mL (≈ 0.0476 µM)

Q: What about the IC90 [13] of the same compound?
A: 0.66 µg/mL (≈ 1.05 µM)

Q: And the IC50 [14]?
A: 0.036 µg/mL (≈ 0.0572 µM)

Q: And the IC90 [14]?
A: > 16 µg/mL

Q: What about the IC50 (PC-3 (prostate cancer)) of the same compound?
A: 0.029 µg/mL (≈ 0.0461 µM)

Q: And the IC90 (PC-3 (prostate cancer))?
A: > 16 µg/mL

Q: What about the IC50 [15] of the same compound?
A: 0.007 µg/mL (≈ 0.0111 µM)

Q: What about the IC90 [15] of the same compound?
A: 0.02 µg/mL (≈ 0.0318 µM)

Q: And the IC50 [16]?
A: 0.12 µg/mL (≈ 0.191 µM)

Q: What about the IC90 [16] of the same compound?
A: > 16 µg/mL

Q: What about the IC50 [17] of the same compound?
A: 0.018 µg/mL (≈ 0.0286 µM)

Q: And the IC90 [17]?
A: 0.11 µg/mL (≈ 0.175 µM)

Q: With `COC(=O)C[C@](O)(CCCC(C)(C)O)C(=O)O[C@@H]1C(OC)=C[C@]23CCCN2CCc2cc4c(cc2[C@H]13)OCO4` [HHT, O-3-[(2R)-2,6-dihydroxy-2-(2′-methoxy-2′-oxoethyl)-6-methylheptanoyl]cephalotaxine, reference compound] as the compound, how does the IC50 [1] read?
A: 0.02 µg/mL (≈ 0.0367 µM)

Q: And the IC90 [1]?
A: 0.046 µg/mL (≈ 0.0843 µM)

Q: What about the IC50 [2] of the same compound?
A: 0.007 µg/mL (≈ 0.0128 µM)

Q: And the IC90 [2]?
A: ≥ 16 µg/mL

Q: And the IC50 [3]?
A: 0.035 µg/mL (≈ 0.0641 µM)

Q: And the IC90 [3]?
A: 0.98 µg/mL (≈ 1.8 µM)

Q: And the IC50 [4]?
A: 0.005 µg/mL (≈ 0.00916 µM)

Q: What about the IC90 [4] of the same compound?
A: 0.024 µg/mL (≈ 0.044 µM)

Q: What about the IC50 [5] of the same compound?
A: 0.006 µg/mL (≈ 0.011 µM)

Q: And the IC90 [5]?
A: 0.012 µg/mL (≈ 0.022 µM)

Q: What about the IC50 [6] of the same compound?
A: 0.006 µg/mL (≈ 0.011 µM)

Q: And the IC90 [6]?
A: 0.027 µg/mL (≈ 0.0495 µM)

Q: What about the IC50 (A549 (human lung cancer)) of the same compound?
A: 0.03 µg/mL (≈ 0.055 µM)

Q: What about the IC90 (A549 (human lung cancer)) of the same compound?
A: > 16 µg/mL

Q: What about the IC50 [7] of the same compound?
A: 0.01 µg/mL (≈ 0.0183 µM)

Q: What about the IC90 [7] of the same compound?
A: 11.6 µg/mL (≈ 21.2 µM)

Q: What about the IC50 [8] of the same compound?
A: 0.038 µg/mL (≈ 0.0696 µM)

Q: What about the IC90 [8] of the same compound?
A: > 16 µg/mL

Q: And the IC50 [9]?
A: 0.037 µg/mL (≈ 0.0678 µM)

Q: What about the IC90 [9] of the same compound?
A: > 16 µg/mL

Q: What about the IC50 [10] of the same compound?
A: 0.019 µg/mL (≈ 0.0348 µM)

Q: And the IC90 [10]?
A: 16 µg/mL (≈ 29.3 µM)

Q: What about the IC50 [11] of the same compound?
A: 0.014 µg/mL (≈ 0.0257 µM)

Q: What about the IC90 [11] of the same compound?
A: > 16 µg/mL

Q: What about the IC50 [12] of the same compound?
A: 0.004 µg/mL (≈ 0.00733 µM)

Q: And the IC90 [12]?
A: 0.049 µg/mL (≈ 0.0898 µM)

Q: What about the IC50 (MG63 (osteosarcoma)) of the same compound?
A: 0.01 µg/mL (≈ 0.0183 µM)

Q: And the IC90 (MG63 (osteosarcoma))?
A: 1.2 µg/mL (≈ 2.2 µM)

Q: What about the IC50 [13] of the same compound?
A: 0.016 µg/mL (≈ 0.0293 µM)

Q: What about the IC90 [13] of the same compound?
A: 0.2 µg/mL (≈ 0.367 µM)

Q: And the IC50 [14]?
A: 0.035 µg/mL (≈ 0.0641 µM)

Q: And the IC90 [14]?
A: > 16 µg/mL

Q: And the IC50 (PC-3 (prostate cancer))?
A: 0.08 µg/mL (≈ 0.147 µM)

Q: And the IC90 (PC-3 (prostate cancer))?
A: > 16 µg/mL

Q: And the IC50 [15]?
A: 0.003 µg/mL (≈ 0.0055 µM)

Q: And the IC90 [15]?
A: 0.009 µg/mL (≈ 0.0165 µM)

Q: And the IC50 [16]?
A: 0.09 µg/mL (≈ 0.165 µM)

Q: And the IC90 [16]?
A: > 16 µg/mL

Q: What about the IC50 [17] of the same compound?
A: 0.004 µg/mL (≈ 0.00733 µM)

Q: What about the IC90 [17] of the same compound?
A: 0.018 µg/mL (≈ 0.033 µM)

Source: patent US9428519B2, “Acylated derivative of homoharringtonine, preparation method therefor, and application thereof” (HANGZHOU BENSHENG PHARMACEUTICAL CO., LTD., priority 2011, dated 2016)
